Test results from the supplement of paper PMC11208160.

Experiment: recombinant UMI read abundance after kanamycin selection (control-corrected) (log10(CPM+1)); higher = more efficient recombination; extreme values may be limits of the assay; sequences stand for … in AGTGCAGAGAAAATCGGCCAGTTTTCTCTGCCTGCAGTCCGCATGCCGTGGGACCCCTTGGGTTCTAACCTGTTGCCTAGATTTATGCAGCGGACTGCCTTTCTCCCAAAGTGATAAACCGG…AGGTTGGTTTCACT; site = the 11-nt donor
In short: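 Pooled Escherichia coli screen of donor and donor-binding-loop pairs for the IS621 bridge recombinase. Each pair sits with a 12-nt UMI on a plasmid carrying a promoterless kanamycin gene. The library was co-electroporated with a target plasmid encoding a fixed target and T7-inducible recombinase, then plated with IPTG (0.07 mM) plus kanamycin, or unselected, each in two replicates. Recombinant UMIs were PCR-amplified across the donor–target junction and sequenced. Counts became CPM, averaged over replicates, scaled by control-derived factors and reported as log10(CPM+1).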
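Further: IS621 bridge recombinase in Escherichia coli cells against a fixed T5 target plasmid.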

| Sequence | recombinant UMI read abundance (log10) |
| --- | --- |
| ATAAGGCCATGGACCGGTTTTCCCGGTAATCCGTATTTGAC (site AGAAGGCCTGT) | 0 |
| ATAAGGCCATGGACCGGTTTTCCCGGTAATCCGTATTTGAC (site ATAAAGCCTGT) | 0 |
| ATAAGGCCATGGACCGGTTTTCCCGGTAATCCGTATTTGAC (site ATAACGCCTGT) | 0.0185 |
| ATAAGGCCATGGACCGGTTTTCCCGGTAATCCGTATTTGAC (site ATAAGACCTGT) | 0 |
| ATAAGGCCATGGACCGGTTTTCCCGGTAATCCGTATTTGAC (site ATAAGCCCTGT) | 0 |
| ATAAGGCCATGGACCGGTTTTCCCGGTAATCCGTATTTGAC (site ATAAGGACTGT) | 0.956 |
| ATAAGGCCATGGACCGGTTTTCCCGGTAATCCGTATTTGAC (site ATAAGGCCTAT) | 0.214 |
| ATAAGGCCATGGACCGGTTTTCCCGGTAATCCGTATTTGAC (site ATAAGGCCTCT) | 0.0671 |
| ATAAGGCCATGGACCGGTTTTCCCGGTAATCCGTATTTGAC (site ATAAGGCCTGA) | 0 |
| ATAAGGCCATGGACCGGTTTTCCCGGTAATCCGTATTTGAC (site ATAAGGCCTGC) | 0.147 |
| ATAAGGCCATGGACCGGTTTTCCCGGTAATCCGTATTTGAC (site ATAAGGCCTGG) | 0 |
| ATAAGGCCATGGACCGGTTTTCCCGGTAATCCGTATTTGAC (site ATAAGGCCTGT) | 0 |
| ATAAGGCCATGGACCGGTTTTCCCGGTAATCCGTATTTGAC (site ATAAGGCCTTT) | 0.131 |
| ATAAGGCCATGGACCGGTTTTCCCGGTAATCCGTATTTGAC (site ATAAGGGCTGT) | 0 |
| ATAAGGCCATGGACCGGTTTTCCCGGTAATCCGTATTTGAC (site ATAAGGTCTGT) | 1.87 |
| ATAAGGCCATGGACCGGTTTTCCCGGTAATCCGTATTTGAC (site ATAAGTCCTGT) | 0 |
| ATAAGGCCATGGACCGGTTTTCCCGGTAATCCGTATTTGAC (site ATAATGCCTGT) | 0 |
| ATAAGGCCATGGACCGGTTTTCCCGGTAATCCGTATTTGAC (site ATACGGCCTGT) | 0 |
| ATAAGGCCATGGACCGGTTTTCCCGGTAATCCGTATTTGAC (site ATAGGGCCTGT) | 0 |
| ATAAGGCCATGGACCGGTTTTCCCGGTAATCCGTATTTGAC (site ATATGGCCTGT) | 0.00516 |
| ATAAGGCCATGGACCGGTTTTCCCGGTAATCCGTATTTGAC (site ATCAGGCCTGT) | 0 |
| ATAAGGCCATGGACCGGTTTTCCCGGTAATCCGTATTTGAC (site ATGAGGCCTGT) | 0 |
| ATAAGGCCATGGACCGGTTTTCCCGGTAATCCGTATTTGAC (site ATTAGGCCTGT) | 0 |
| ATAAGGCCATGGACCGGTTTTCCCGGTAATCCGTATTTGAC (site CTAAGGCCTGT) | 0 |
| ATAAGGCCATGGACCGGTTTTCCCGGTAATCCGTATTTGAC (site GTAAGGCCTGT) | 0 |

| Sequence | recombinant UMI read abundance (log10) |
| --- | --- |
| ATAAGGCCATGGACCGGTTTTCCCGGTAATCCGTATTTGAC (site TTAAGGCCTGT) | 0 |
| ATAAGGCCATGGACCGGTTTTCCCGGTAATCCGTATTTGCC (site ATAAGGCCTGA) | 0 |
| ATAAGGCCATGGACCGGTTTTCCCGGTAATCCGTATTTGCC (site ATAAGGCCTGC) | 0 |
| ATAAGGCCATGGACCGGTTTTCCCGGTAATCCGTATTTGCC (site ATAAGGCCTGG) | 1.07 |
| ATAAGGCCATGGACCGGTTTTCCCGGTAATCCGTATTTGCC (site ATAAGGCCTGT) | 0 |
| ATAAGTCCATGGACCGGTTTTCCCGGTAATCCGTATTTGAC (site ATAAGACCTGT) | 0 |
| ATAAGTCCATGGACCGGTTTTCCCGGTAATCCGTATTTGAC (site ATAAGCCCTGT) | 0.569 |
| ATAAGTCCATGGACCGGTTTTCCCGGTAATCCGTATTTGAC (site ATAAGGCCTGT) | 0.787 |
| ATAAGTCCATGGACCGGTTTTCCCGGTAATCCGTATTTGAC (site ATAAGTCCTGT) | 2.13 |
| ATAATCGCATGGACCGGTTTTCCCGGTAATCCGTATTTGGG (site ATAATCGCTCC) | 0.324 |
| ATAGAGCCATGGACCGGTTTTCCCGGTAATCCGTATTTGAA (site ATAGAGCCTTT) | 0.525 |
| ATAGCCTCATGGACCGGTTTTCCCGGTAATCCGTATTTGCG (site ATAGCCTCTCG) | 2.52 |
| ATAGCGACATGGACCGGTTTTCCCGGTAATCCGTATTTGCG (site ATAGCGACTCG) | 2.61 |
| ATAGCTGCATGGACCGGTTTTCCCGGTAATCCGTATTTGTG (site ATAGCTGCTCA) | 1.35 |
| ATAGCTGCATGGACCGGTTTTCCCGGTAATCCGTATTTGTG (site CTAGCTGCTCA) | 0.647 |
| ATAGCTGCATGGACCGGTTTTCCCGGTAATCCGTATTTGTG (site GTAGCTGCTCA) | 0.00767 |
| ATAGCTGCATGGACCGGTTTTCCCGGTAATCCGTATTTGTG (site TTAGCTGCTCA) | 0.0149 |
| ATAGGACCATGGACCGGTTTTCCCGGTAATCCGTATTTGCT (site ATAGGACCTAG) | 0 |
| ATAGTAACATGGACCGGTTTTCCCGGTAATCCGTATTTGAG (site ATAGTAACTCT) | 2.18 |
| ATAGTACCATGGACCGGTTTTCCCGGTAATCCGTATTTGAC (site ATAGTACCTGT) | 0 |
| ATAGTAGCATGGACCGGTTTTCCCGGTAATCCGTATTTGAC (site ATAGTAGCTGT) | 3.06 |
| ATAGTAGCATGGACCGGTTTTCCCGGTAATCCGTATTTGAC (site CTAGTATCTGT) | 0 |
| ATAGTATCATGGACCGGTTTTCCCGGTAATCCGTATTTGAA (site ATAGTATCTTT) | 3.09 |
| ATAGTATCATGGACCGGTTTTCCCGGTAATCCGTATTTGAA (site CTAGTATCTGT) | 0.977 |
| ATATAGGCATGGACCGGTTTTCCCGGTAATCCGTATTTGGC (site ATATAGGCTGC) | 2.39 |

| Sequence | recombinant UMI read abundance (log10) |
| --- | --- |
| ATATAGGCATGGACCGGTTTTCCCGGTAATCCGTATTTGGC (site ATCTAGGCTGC) | 1.31 |
| ATATAGGCATGGACCGGTTTTCCCGGTAATCCGTATTTGGC (site ATGTAGGCTGC) | 1.08 |
| ATATAGGCATGGACCGGTTTTCCCGGTAATCCGTATTTGGC (site ATTTAGGCTGC) | 0.00901 |
| ATATATCCATGGACCGGTTTTCCCGGTAATCCGTATTTGGT (site ATATATCCTAC) | 0.648 |
| ATATGCACATGGACCGGTTTTCCCGGTAATCCGTATTTGTA (site ATATGCACTTA) | 2.49 |
| ATATGCACATGGACCGGTTTTCCCGGTAATCCGTATTTGTA (site CTATGCACTTA) | 0.913 |
| ATATGCACATGGACCGGTTTTCCCGGTAATCCGTATTTGTA (site GTATGCACTTA) | 0.909 |
| ATATGCACATGGACCGGTTTTCCCGGTAATCCGTATTTGTA (site TTATGCACTTA) | 1.66 |
| ATATGGACATGGACCGGTTTTCCCGGTAATCCGTATTTGAC (site ATATGGACTGT) | 2.7 |
| ATCAACTCATGGACCGGTTTTCCCGGTAATCCGTATTTGTG (site ATCAACTCTCA) | 2.13 |
| ATCCACGCATGGACCGGTTTTCCCGGTAATCCGTATTTGAG (site ATCCAAGCTCT) | 0.00979 |
| ATCCACGCATGGACCGGTTTTCCCGGTAATCCGTATTTGAG (site ATCCACGCTCT) | 0.817 |
| ATCCACGCATGGACCGGTTTTCCCGGTAATCCGTATTTGAG (site ATCCAGGCTCT) | 0.0164 |
| ATCCACGCATGGACCGGTTTTCCCGGTAATCCGTATTTGAG (site ATCCATGCTCT) | 0.00887 |
| ATCCGAGCATGGACCGGTTTTCCCGGTAATCCGTATTTGAG (site ATCCAAGCTCT) | 0.696 |
| ATCCGAGCATGGACCGGTTTTCCCGGTAATCCGTATTTGAG (site ATCCCAGCTCT) | 0.172 |
| ATCCGAGCATGGACCGGTTTTCCCGGTAATCCGTATTTGAG (site ATCCGAGCTCT) | 0.924 |
| ATCCGAGCATGGACCGGTTTTCCCGGTAATCCGTATTTGAG (site ATCCTAGCTCT) | 0.0162 |
| ATCCGATCATGGACCGGTTTTCCCGGTAATCCGTATTTGGT (site ATCCGATCTAC) | 0.721 |
| ATCCTATCATGGACCGGTTTTCCCGGTAATCCGTATTTGAC (site ATCCTATCTGT) | 1.58 |
| ATCCTGGCATGGACCGGTTTTCCCGGTAATCCGTATTTGAC (site ATCCTGGCTGT) | 0 |
| ATCGATACATGGACCGGTTTTCCCGGTAATCCGTATTTGAC (site ATCAATACTGT) | 1.49 |
| ATCGATACATGGACCGGTTTTCCCGGTAATCCGTATTTGAC (site ATCCATACTGT) | 0 |
| ATCGATACATGGACCGGTTTTCCCGGTAATCCGTATTTGAC (site ATCGATACTGT) | 2.32 |
| ATCGATACATGGACCGGTTTTCCCGGTAATCCGTATTTGAC (site ATCTATACTGT) | 0.652 |
